The assay concerns 186277-243-T-J2-PDC complex spheroid viability. The assay is described as follows: Anticancer human tumor 186277-243-T-J2-PDC patient-derived colon adenocarcinoma cell line growth inhibition [GQUAD]. The settings on record: for viability, T/C: stronger effect = lower value. The text has this: DNA G-quadruplex Stabilizer Agents in Combinations in Complex Spheroids
A high-throughput screen of multi-cell type tumor spheroids was designed to identify active combinations of DNA G-quadruplex stabilizer agents and targeted small molecules. Complex spheroids include a stromal component modeled by human endothelial cells (HUVEC) and fibroblasts modeled by human mesenchymal stem cells (MSCs). The concentration ranges selected for each drug and investigational agent were based upon clinically achievable concentrations if the clinical Cmax of the agent was known.
Compounds. The drugs and investigational agents: pidnarulex (CX-5461; NSC782164), APTO-253 (NSC789042), BRACO-19 (NSC847499), peposertib (NSC802822), ceralasertib (NSC780249), elimusertib (NSC800525), camonsertib (NSC841442), AZD-1390 (NSC803789), olaparib (NSC753686), talazoparib (NSC767125), ART-558 (NSC835418), sotorasib (NSC818433), MRTX-1133 (NSC836407), SN-38 (NSC673596), topotecan (NSC609699), etoposide (NSC141540), doxorubicin (NSC123127), gemcitabine (NSC613327), 5-fluorouracil (NSC19893), paclitaxel (NSC125973), vemurafenib (NSC761431), panobinostat (NSC761190), R-306465 (JNJ-16241199; NSC773264), adavosertib (NSC754352), TP-3654 (NSC805149), carboplatin (NSC241240), KSQ-4279 (NSC840948), and staurosporine (NSC755774) were obtained from the National Cancer Institute (NCI) Developmental Therapeutics Program Chemical Repository (34). The FDA-approved anticancer drug set is available from the NCI Developmental Therapeutics Program. […] The stock solutions were prepared in dimethyl sulfoxide (DMSO, Sigma-Aldrich, St. Louis, MO, cat. D2650) at 800-fold the tested concentration and stored at -70 degrees C prior to their use. All drugs and investigational agents were tested over a range starting from a high concentration at or near the clinical Cmax and decreasing in half-log increments. If the clinical Cmax for an agent had not been determined, the highest concentration tested was 10 microM.
2.3 Cell Culture. All cells were maintained in an incubator at 37 degrees C and 5% CO2 with 95% humidity. The PDC lines were cultured according to standard operating procedures established by the NCI PDMR. All PDCs were thawed and cultured in Matrigel-coated flasks prepared with a working solution of 1X Ham's F-12 nutrient mix, without supplementation (Invitrogen, cat. 11765054), 100 U/mL penicillin-streptomycin (Invitrogen, cat. 15140122), and 2.5% Matrigel (Corning Inc., cat. 354248) for the first three passages. The 857933-349-R-J2-PDC line was cultured in 6C/Colon 1B media, which includes advanced DMEM/F-12 (Thermo Fisher Scientific, cat. 12634028), 10 mM HEPES (Thermo Fisher Scientific, cat. 15630080), 1X GlutaMAX supplement (Thermo Fisher Scientific, cat. 35050061), 0.1 mg/mL primocin (InvivoGen, cat. ant-pm-2), 10% defined fetal bovine serum, heat inactivated (HyClone Laboratories Inc., cat. SH30070.03HI), 50% L-WRN conditioned media (ATCC, cat. CRL-3276), 1.25 mM N-Acetyl-L-cysteine (Sigma-Aldrich, cat. A9165), 10 mM nicotinamide (Sigma-Aldrich, cat. N0636), 1X B-27 supplement (Thermo Fisher Scientific, cat. 17504044), 1X N-2 supplement (Thermo Fisher Scientific, cat. 17502048), 10 microM Y-27632 dihydrochloride (Tocris Bioscience, cat. 1254), and 50 ng/mL human EGF recombinant protein (Thermo Fisher Scientific, cat. PHG0311). The 485176-168-R4-J1-PDC line was cultured in Panc media, which includes all 6C/Colon 1B media components plus 100 ng/mL human FGF-10 (Thermo Fisher Scientific, cat. 100-26), 500 nM SB-431542 (Selleckchem, cat. S1067), and gastrin (Tocris, cat. 3006).
[…]

“And” between values parts separate entries of the source, which are not always exact repeats. Equal values may be shown once. Bounds are passed on as bounds.
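Also: spheroids exposed to drugs for 7 days.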
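For viability, T/C in this document: 100% = DMSO vehicle control viability.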

For the compound `C=CCn1c(=O)c2cnc(Nc3ccc(N4CCN(C)CC4)cc3)nc2n1-c1cccc(C(C)(C)O)n1`, the viability, T/C was 117% and 101% and 93.2% (compound 0.0316 µM); 73.4% and 86.2% and 76.1% (compound 0.1 µM); 13.5% and 16.9% and 22.7% (compound 0.316 µM); 9.12% and 11.3% and 11.6% (compound 1 µM); 8.45% and 9.04% and 11% (compound 3.16 µM); 10.8% and 11.9% and 14.4% (compound 10 µM). For the same compound, the IC50 (curve of compound) is 157 nM and 182 nM and 175 nM.
Regarding `CC(C)(O)C1CCC(Nc2ccc3ncc(-c4cccc(C(F)(F)F)c4)n3n2)CC1` (stereo not drawn), the viability, T/C was 82.3% and 96.5% and 103% (compound 0.0316 µM); 106% and 97.7% and 92.2% (compound 0.1 µM); 101% and 99.8% and 99.6% (compound 0.316 µM); 83.7% and 85.5% and 105% (compound 1 µM); 55.3% and 49% and 56.7% (compound 3.16 µM); 46.4% and 46% and 50% (compound 10 µM). Also, for the setting “curve of compound”, the IC50 is 6250 nM and 3040 nM and > 10000 nM.
`CN(C)c1ccc(Nc2c3ccc(NC(=O)CCN4CCCC4)cc3nc3cc(NC(=O)CCN4CCCC4)ccc23)cc1`: the viability, T/C was 97.8% [middle of 12 runs] (compound 0.1 µM), 101% [middle of 12 runs] (compound 0.316 µM), 101% [middle of 12 runs] (compound 1 µM) and 99.7% [middle of 12 runs] (compound 10 µM). Also, the IC50 (compound alone, run of 04/22/2024) was above 10000 nM.
`COc1ncnc(C2CC2)c1-c1ncc2cnn(Cc3ccc(-c4nc(C(F)(F)F)cn4C(C)C)cc3)c2n1`: the viability, T/C (compound 0.0316 µM) was 90% and 113% and 103%; the viability, T/C (compound 0.1 µM) is 95.5% and 108% and 94%; the viability, T/C (compound 0.316 µM) was 90.5% and 94.9% and 102%; the viability, T/C (compound 1 µM) is 88.4% and 101% and 105%; the viability, T/C (compound 3.16 µM) is 96% and 96.8% and 92.5%; the viability, T/C (compound 10 µM) was 76.6% and 96.9% and 106%. Further, the IC50 (curve of compound) is above 10000 nM.
Consider `O=C(NO)c1cnc(N2CCN(S(=O)(=O)c3ccc4ccccc4c3)CC2)nc1`, for which the viability, T/C reads like this: (compound 0.0316 µM) 108% and 104% and 95.6%; (compound 0.1 µM) 87.7% and 95.5% and 89.9%; (compound 0.316 µM) 7.49% and 8.52% and 11.5%; (compound 1 µM) 0.33% and 0.31% and 0.48%; (compound 3.16 µM) 0.27% and 0.25% and 0.13%; (compound 10 µM) 0.27% and 0.25% and 0.15%. In addition, the half-maximal inhibitory concentration (IC50) (curve of compound) was 172 nM and 183 nM and 180 nM.

The record behind these values is PubChem BioAssay AID2060512 (Molecular Pharmacology Branch, DTP, NCI, 2025).
